Laboratory results as given in ChEMBL document CHEMBL1135062, “Total synthesis and semi-synthetic approaches to analogues of antibacterial natural product althiomycin” (2002).
Values after ≈ are worked out from the molar mass of the structure shown.

Tests used:
Assay type in all cases: functional
Saccharomyces cerevisiae = assay: Tested for the minimum inhibitory concentration against Saccharomyces cerevisiae NCYC 81
Escherichia coli [1] = assay: Tested for the minimum inhibitory concentration against Escherichia coli 1852E + 3 ug/mL PMBN
Staphylococcus aureus [2] = assay: Tested for the minimum inhibitory concentration against Staphylococcus aureus 853E
Bacillus subtilis = assay: Tested for the minimum inhibitory concentration against Bacillus subtilis 6633
Staphylococcus aureus [3] = assay: Tested for the minimum inhibitory concentration against Staphylococcus aureus col
Streptococcus pneumoniae = assay: Tested for the minimum inhibitory concentration against Streptococcus pneumoniae 3512
Enterococcus faecalis = assay: Tested for the minimum inhibitory concentration against […] faecalis 850E
Escherichia coli [4] = assay: Tested for the minimum inhibitory concentration against Escherichia coli 1852E PM

| Compound | MIC (Saccharomyces cerevisiae) [µg/mL] | MIC (Escherichia coli [1]) [µg/mL] | MIC (Staphylococcus aureus [2]) [µg/mL] | MIC (Bacillus subtilis) [µg/mL] | MIC (Staphylococcus aureus [3]) [µg/mL] | MIC (Streptococcus pneumoniae) [µg/mL] | MIC (Enterococcus faecalis) [µg/mL] | MIC (Escherichia coli [4]) [µg/mL] |
| --- | --- | --- | --- | --- | --- | --- | --- | --- |
| COC1=CC(=O)N(C(=O)[C@H]2CSC(CNC(C)=O)=N2)C1 | > 32 | 8 | 32 (≈ 108 µM) | 16 (≈ 53.8 µM) | 32 (≈ 108 µM) | 16 (≈ 53.8 µM) | 32 (≈ 108 µM) | 16 (≈ 53.8 µM) |
| COC1=CC(=O)N(C(=O)[C@H]2CSC(C(CO)NC(=O)c3csc(/C=N/O)n3)=N2)C1 (some centres undefined) | > 32 | 1 | 16 (≈ 36.4 µM) | 16 (≈ 36.4 µM) | 16 (≈ 36.4 µM) | 4 (≈ 9.1 µM) | 16 (≈ 36.4 µM) | 1 (≈ 2.28 µM) |
| CO/N=C(\C(=O)N[C@@H]1C(=O)N2C(C(=O)O)=C(CSc3nc(=O)c(O)nn3C)CS[C@H]12)c1csc(N)n1 [CEFTRIAXONE] | > 32 | 0.01 | 4 (≈ 7.21 µM) | 0.25 (≈ 0.451 µM) | > 32 | 0.01 (≈ 0.018 µM) | 16 (≈ 28.9 µM) | 0.06 (≈ 0.108 µM) |
